Test results: US8399214B2 (Evonik Degussa GmbH, priority 2005, dated 2013)
“And” between values parts separate entries of the source, which are not always exact repeats. Equal entries are not always repeated. Where two headings read alike, the source gives them in different places.

Test system: C. glutamicum OM63 (ΔmetF)
Procedure: To this end, test tube experiments using 5 ml of medium were performed on OM63 and M2014.
To each test tube 100 μl of a sterile suspension of XAD4 in water (50% v/v) was added.

With `CSSC` [DMDS, dimethyl disulfide] the “Optical densities at 600 nm” value (DMDS 0.1%, XAD4, 24 hours at 30° C.) was 3.0 and 3.3, the “Optical densities at 600 nm” value (DMDS 0.1%, XAD4, 42 hours at 30° C.) was 6.3 and the “Optical densities at 600 nm” value (DMDS 0.2%, XAD4, 24 hours at 30° C.) was 1.7 and 3.4. The “Optical densities at 600 nm” value (DMDS 0.2%, XAD4, 42 hours at 30° C.) was 6.5, the OD600 (DMDS 0.2%, XAD4, 60 hours at 30° C.) was 1.2 and 1.3 and the “Optical densities at 600 nm” value (DMDS 0.3%, XAD4, 24 hours at 30° C.) was 3.9 and 2.1. For the same molecule, the “Optical densities at 600 nm” value (DMDS 0.3%, XAD4, 42 hours at 30° C.) was 4.9, the “Optical densities at 600 nm” value (DMDS 0.4%, XAD4, 24 hours at 30° C.) was 1.5 and 1.6 and the “Optical densities at 600 nm” value (DMDS 0.4%, XAD4, 42 hours at 30° C.) was 3.6. The “Optical densities at 600 nm” value (DMDS 0.5%, XAD4, 24 hours at 30° C.) was 0.1, the “Optical densities at 600 nm” value (DMDS 0.5%, XAD4, 42 hours at 30° C.) was 1.6 and the “maximum amount of DMDS that allowed cell growth” value (DMDS with Amberlite XAD4) was 0.4%.
